Experimental data taken from patent US8153637B2, “Phenyl-alkyl piperazines having TNF-modulating activity, preparation method, and therapeutic use thereof” (Sanofi, priority 2008, dated 2012).

Legend:
TNF-α [1] = test: Synthesis of TNF-α induced in Sprague-Dawley rats by LPS from Escherichia coli; assay type: in vivo; conditions: male Sprague-Dawley rats, oral administration; LPS i.v. 0.1 mg/Kg two hours later; serum TNF-α 1.5 hours after LPS
Protocol: The test products are administered orally to groups of ten male Sprague-Dawley rats weighing about 200 grams. Two hours later, LPS is administered intravenously (0.1 mg/Kg). The blood of each animal is collected 1.5 hours after the LPS administration. The samples are centrifuged, and the serum is recovered and frozen at −80° C. The TNF-α is measured using commercial kits (RPN 2744 Amersham, UK).

[2] = test system: tactile allodynia after spare nerve injury; test: Model of neuropathic pain: anti-allodynic effect in the spare nerve injury (SNI), von Frey test; assay type: in vivo; conditions: male C57B6 mice, 7 days after surgery, 1 mg/kg i.v., from 1 h to 6 h after administration
Protocol: The compounds of the invention are also tested in a model of neuropathic pain: measurement of the anti-allodynic effect in the spare nerve injury (SNI).
In this in vivo model of mice suffering from chronic neuropathic pain, the effect on tactile allodynia, a painful sensation induced after a mechanical stimulus not normally painful, is triggered in the hind leg by surgical lesion of the great sciatic nerve. It is then determined by measuring the paw withdrawal threshold (PWT), i.e. the applied force (expressed in grams) at which the mouse withdraws its hind leg.
Tactile allodynia is determined on both hind legs, i.e. homolaterally and controlaterally to the lesion determined following surgery, with the automatic von Frey test, in which the plantar skin of the hind legs is exposed to a pressure stimulus of increasing intensity reaching 5 grams, using a discharge needle prod. […]
Trial groups using the compounds according to the invention and a control group of animals were used, each being composed of four male C57B6 mice. In each group, the baseline of the PWT values (BL) was determined before surgery. […]
7 days after surgery, just before the administration of the compound, i.e. at 0 h, and in all the groups, the PWT values were determined for the homolateral hind leg (injured) and the controlateral hind leg (non-injured). […]

[3] = test system: Zymosan-induced knee joint inflammation / hyperalgesia; test: Model of joint inflammation: Zymosan-induced knee joint inflammation, secondary hyperalgesia (plantar test); assay type: in vivo; conditions: male hamster, 1 ng/joint injected into the joint one hour before first Zymosan injection; 3 Zymosan injections; measured from 4 hours and during following 3 weeks
Protocol: The compounds of the invention are tested in a model of joint inflammation.
The compound (1 ng/joint as a suspension in 10 μL of a solution of 2% PVP (polyvinylpyrrolidone)/1% lutrol F68/0.9% NaCl) according to the invention is injected one hour before the first injection of Zymosan® (see below) into the joint of a hamster.
Induction of a knee joint inflammation: Under light anaesthesia using isofluran, a suspension of Zymosan® at a dose of 100 μg in 10 μL of saline solution is injected into the knee joint of a male hamster. Zymosan® is a yeast extract which produces a strong dose-dependent inflammation when subcutaneously injected. Under the experimental conditions described herein (injection into the knee joint), it induces a hyperalgesia lasting for a week. In order to extend this period, 3 consecutive injections of Zymosan® were applied. The lag time to paw withdrawal, following exposure of the plantar skin to a defined heat stimulus, is measured using apparatus (Plantar Test Ugo Basile Biological Research Apparatus, Comerio, Italy) comprising a mini-camera to ensure the correct positioning of the infrared ray below the hind leg of interest.
Measurement of Secondary Hyperalgesia:
The timer, which measures the length of time the infrared light is reflected by the hind leg, is started by the investigator and stops automatically as soon as the animal shakes or pulls away its leg. […]

TNF-α [4] = test: Synthesis of TNF-α induced in Balb/c mice by LPS from Escherichia coli; assay type: in vivo; conditions: female Balb/c mice, oral administration; LPS i.v. 10 μg/mouse one hour later; plasma TNF-α 1.5 hours after LPS
Protocol: The test products are administered orally to groups of five 7- to 8-week-old female Balb/c mice (Charles River, France). One hour later, LPS is administered intravenously (10 μg/mouse). The blood of each animal is collected 1.5 hours after the LPS administration. The samples are centrifuged, and the plasma is recovered and frozen at −80° C. The TNF-α is measured using commercial kits (R & D, Abingdon, UK).

Row | melting point | SMILES | further results
1 | > 212 °C | CCCCCc1cc(CCN2CCN(c3ccc(C(F)(F)F)cn3)CC2)ccc1C.Cl.Cl | –
2 | 184 to 185 °C | CCCc1cc(CCN2CCN(c3cccc(C(F)(F)F)c3)CC2)ccc1OC.Cl | –
3 | 187 °C | CCCCCCc1cc(CCN2CCN(c3cccc(C(F)(F)F)c3)CC2)ccc1C.Cl | –
4 | 197 to 200 °C | CCCCCc1cc(CCN2CCN(c3cccc(OC(F)(F)F)c3)CC2)ccc1C.Cl | –
5 | 203 °C | CCCCCc1cc(CCN2CCN(c3ccc(Cl)cc3)CC2)ccc1C.Cl | –
6 | 226 to 228 °C | CCCCCc1cc(CCN2CCN(c3cccc(C)c3)CC2)ccc1C.Cl.Cl | –
7 | 182 to 185 °C | CCCCCc1cc(CCN2CCN(c3cccc(C(F)F)c3)CC2)ccc1C.Cl [compound 8, 1-(3-difluoromethylphenyl)-4-[2-(4-methyl-3-pentylphenyl)-ethyl]piperazine hydrochloride] | IC50, inhibiting the synthesis of TNF-α (TNF-α [1]): 1 mg/kg
8 | 190 to 192 °C | CCCCCc1cc(CCN2CCN(c3ccc(Br)cn3)CC2)ccc1C.Cl.Cl | –
9 | 146 to 149 °C | CCCCCc1cc(CCN2CCN(c3cccc(C(F)(F)F)c3)CC2)ccc1OC.Cl | –
10 | 215 to 217 °C | CCCCCc1cc(CCN2CCN(c3cccc(F)c3)CC2)ccc1C.Cl [compound 4, 1-(3-fluorophenyl)-4-[2-(4-methyl-3-pentylphenyl)ethyl]-piperazine hydrochloride] | IC50, inhibiting the synthesis of TNF-α (TNF-α [1]): 1 mg/kg
11 | 198 to 200 °C | CCCc1cc(CCN2CCN(c3cccc(C(F)(F)F)c3)CC2)ccc1C.Cl | –
12 | 200 to 202 °C | CCCCCc1cc(CCN2CCN(c3ccccc3)CC2)ccc1C.Cl | –
13 | 190 to 192 °C | CCCCCCCc1cc(CCN2CCN(c3cccc(C(F)(F)F)c3)CC2)ccc1C.Cl | –
14 | 161 to 163 °C | CCCCCc1cc(CCN2CCN(c3cccc(C(F)(F)F)n3)CC2)ccc1C.Cl | –
15 | 220 to 222 °C | CCCCCc1cc(CCN2CCN(c3ccccc3C)CC2)ccc1C.Cl | –
16 | 228 to 230 °C | CCCCCc1cc(CCN2CCN(c3ccc(OCC)cc3)CC2)ccc1C.Cl.Cl | –
17 | – | CCCCCc1cc(CCN2CCN(c3cccc(C(F)(F)F)c3)CC2)ccc1C.CCCCCc1cc(CCN2CCN(c3cccc(C(F)(F)F)c3)CC2)ccc1C.O=C(O)c1cc2ccccc2c(Cc2c(O)c(C(=O)O)cc3ccccc23)c1O [compound 1, 1-(3-trifluoromethylphenyl)-4-[2-(4-methyl-3-pentylphenyl)ethyl]piperazine hemipamoate] | reduction of pain (anti-allodynic effect, paw withdrawal threshold PWT) [2]: statistically significant reduction of pain; reduction of pain (lag time to leg withdrawal, secondary hyperalgesia) [3]: effective reduction of pain over a 3-week period; IC50, inhibiting the synthesis of TNF-α (TNF-α [1]): 0.3 mg/kg
18 | 193 to 195 °C | CCCCCc1cc(CCN2CCN(c3ccc(C(C)(C)C)cc3)CC2)ccc1C.Cl | –
19 | – | CCCCCc1cc(CCN2CCN(c3cccc(C(F)(F)F)c3)CC2)ccc1C.O=C(O)CCC(=O)O [compound 38, 1-(3-trifluoromethylphenyl)-4-[2-(4-methyl-3-pentyl-phenyl)ethyl]piperazine succinate] | IC50, inhibiting the synthesis of TNF-α (TNF-α [4]): 0.1 mg/kg
20 | 199 to 201 °C | CCCCCc1cc(CCN2CCN(c3ccc(Cl)cn3)CC2)ccc1C.Cl | –
21 | 174 to 177 °C | CCCCCc1cc(CCN2CCN(c3cccc(F)c3)CC2)ccc1OC.Cl | –
22 | 200 to 202 °C | CCCCCc1cc(CCN2CCN(c3ccccc3Cl)CC2)ccc1C.Cl | –
23 | 185 to 187 °C | CCCCCc1cc(CCN2CCN(c3cccc(Br)n3)CC2)ccc1C.Cl | –
24 | 125 to 128 °C | CCCCCc1cc(CCN2CCN(c3cccc(C(F)F)c3)CC2)ccc1OC.Cl | –
25 | 214 °C | CCCCCCCc1cc(CCN2CCN(c3cccc(C(F)(F)F)c3)CC2)ccc1OC.Cl | –
26 | 199 to 201 °C | CCCCCc1cc(CCN2CCN(c3cccc(OC)c3)CC2)ccc1C.Cl | –
27 | 183 to 185 °C | CCCCCc1cc(CCN2CCN(c3ccccn3)CC2)ccc1C.Cl.Cl | –
28 | > 201 °C | CCCCCc1cc(CCN2CCN(c3ccc(F)cc3)CC2)ccc1C.Cl.Cl | –
